Assay results reported in US9932543B2, “Bacterial spore compositions for industrial uses” (priority 2014, dated 2018).
Bridge positions count the residues as written; N and C are the ends. Square brackets hold non-standard residues; d marks the D form. Peptide text beside a SMILES is read from it. * marks the point of attachment. Ileψ(thiazoline)Cys = CC[C@H](C)[C@H](N)C1=N[C@H](C(=O)*)CS1; dOrn = NCCC[C@@H](N)C(=O)O

Tested on: Eimeria maxima and Clostridium perfringens
Type: in vivo, Cobb 500 Chicks (Gallus gallus domesticus)
Settings: infected chickens

In the case of `CC[C@H](C)[C@H](N)C1=N[C@H](C(=O)N[C@@H](CC(C)C)C(=O)N[C@H](CCC(=O)O)C(=O)N[C@H](C(=O)N[C@H]2CCCCNC(=O)[C@H](CC(N)=O)NC(=O)[C@@H](CC(=O)O)NC(=O)[C@H](Cc3cnc[nH]3)NC(=O)[C@@H](Cc3ccccc3)NC(=O)[C@H]([C@@H](C)CC)NC(=O)[C@@H](CCCN)NC2=O)[C@@H](C)CC)CS1` [Treatment Group 5, Bacitracin] ({Ileψ(thiazoline)Cys}-L[dE]IK[dOrn]I[dF]H[dD]N; lactam 4-C), the “Weight Gain Day 0-28” value is reported as 0.811a kg, the “Weight gain over the infected negative control” value (Day 0-28) is reported as “significant increase in weight gain” and the Mortality (Day 28) is reported as 3.1b %. For the same molecule, the “Lesion Score (0-3)” value (Day 28, 0 normal, 3 most severe) was 0.5b and the “Feed Conversion Day 0-28” value (kg of food per kg of body weight) was 1.585c.
